Data taken from US20230107642A1 (Erasca, Inc., priority 2020, published 2023).

molecular target: T1, K-Ras G12C (Homo sapiens, UniProt P01116, G12C); assay: CAF assay (% CAF; method in Example 7, not in this part); format: binding; details: 10 uM compound, 1 h incubation
T1 construct: This protein contained 188 amino acids in total, including an N-terminal 6-Histidine tag; made in house; host or cells: E. coli BL21

| % CAF @ 10 uM, 1h [%] | SMILES |
| --- | --- |
| 85.1 | C=CC(=O)N1C[C@H](C)N(c2nc(=O)n3c4c(c(-c5ccc(F)cc5)c(C(F)(F)F)cc24)SC[C@@H]3COC)C[C@H]1C [Example 497, (S)-7-((2S,5R)-4-acryloyl-2,5-dimethylpiperazin-1-yl)-10-(4-fluorophenyl)-3-(methoxymethyl)-9-(trifluoromethyl)-2H-[1,4]thiazino[2,3,4-ij]quinazolin-5(3H)-one] |
| 15.7 | C=CC(=O)N1CCN(c2nc(=O)n3c4c(c(-c5cc(Cl)c(F)cc5F)c(Cl)cc24)SC[C@@H]3CN2CCC3(CC2)COC3)[C@@H](C)C1 (atropisomer, axis not shown) [Example 483, (3S,10R)-3-((2-oxa-7-azaspiro[3.5]nonan-7-yl)methyl)-7-((S)-4-acryloyl-2-methylpiperazin-1-yl)-9-chloro-10-(5-chloro-2,4-difluorophenyl)-2,3-dihydro-5H-[1,4]thiazino[2,3,4-ij]quinazolin-5-one] |
| 84.2 | C=CC(=O)N1CCN(c2nc(=O)n3c4c(c(-c5ccc(F)cc5F)c(Cl)cc24)SC[C@@H]3CN2CCN(C3CC3)CC2)[C@@H](C)C1 [Example 422, (3S)-7-((S)-4-acryloyl-2-methylpiperazin-1-yl)-9-chloro-3((4-cyclopropylpiperazin-1-yl)methyl)-10-(2,4-difluorophenyl)-2H-[1,4]thiazino[2,3,4-ij]quinazolin-5(3H)-one] |
| 61.3 | C=CC(=O)N1C[C@H](C)N(c2nc(=O)n3c4c(c(-c5ccc(F)cc5F)c(Cl)cc24)SC[C@@H]3CN2C[C@@H]3C[C@H]2CO3)C[C@H]1C [Example 519, (3S)-3-((1S,4S)-2-oxa-5-azabicyclo[2.2.1]heptan-5-ylmethyl)-7-((2S,5R)-4-acryloyl-2,5-dimethylpiperazin-1-yl)-9-chloro-10-(2,4-difluorophenyl)-2H-[1,4]thiazino[2,3,4-ij]quinazolin-5(3H)-one] |
| 93.3 | C=CC(=O)N1CCN(c2nc(=O)n3c4c(c(-c5ccc(F)cc5F)c(Cl)cc24)SC[C@@H]3CN2CCN(C)CC2)[C@@H](C)C1 [Example 411, (3S)-7-((S)-4-acryloyl-2-methylpiperazin-1-yl)-9-chloro-10-(2,4-difluorophenyl)-3-((4-methylpiperazin-1-yl)methyl)-2H-[1,4]thiazino[2,3,4-ij]quinazolin-5(3H)-one] |

The remaining lines, values behind:

| SMILES | % CAF @ 10 uM, 1h [%] |
| --- | --- |
| C=CC(=O)N1CCN(c2nc(=O)n3c4c(c(-c5ccc(F)cc5)c(C(F)(F)F)cc24)SC[C@H](OC)C3)[C@@H](C)C1 [Example 527, (R)-8-((S)-4-acryloyl-2-methylpiperazin-1-yl)-11-(4-fluorophenyl)-3-methoxy-10-(trifluoromethyl)-3,4-dihydro-2H,6H-[1,4]thiazepino[2,3,4-ij]quinazolin-6-one] | 97 |
| C=CC(=O)N1CCN(c2nc(=O)n3c4c(c(-c5c(F)ccc6[nH]ncc56)c(Cl)cc24)SCC3)[C@@H](C)C1 [Example 408, 7-((S)-4-acryloyl-2-methylpiperazin-1-yl)-9-chloro-10-(5-fluoro-1H-indazol-4-yl)-2,3-dihydro-5H-[1,4]thiazino[2,3,4-ij]quinazolin-5-one] | 39.3 |
| C=CC(=O)N1CCN(c2nc(=O)n3c4c(c(-c5ccc(F)cc5F)c(C(F)(F)F)cc24)SC[C@H](OC)C3)[C@@H](C)C1 [Example 465, (3R)-8-((S)-4-acryloyl-2-methylpiperazin-1-yl)-11-(2,4-difluorophenyl)-3-methoxy-10-(trifluoromethyl)-3,4-dihydro-2H,6H-[1,4]thiazepino[2,3,4-ij]quinazolin-6-one] | 96 |
| C=CC(=O)N1C[C@H](C)N(c2nc(=O)n3c4c(c(-c5cc(Cl)c(F)cc5F)c(C(F)(F)F)cc24)SC[C@@H]3CN2CCN(CC(F)F)CC2)C[C@H]1C (atropisomer, axis not shown) [Example 556, (3S,10R)-7-((2S,5R)-4-acryloyl-2,5-dimethylpiperazin-1-yl)-10-(5-chloro-2,4-difluorophenyl)-3-((4-(2,2-difluoroethyl)piperazin-1-yl)methyl)-9-(trifluoromethyl)-2H-[1,4]thiazino[2,3,4-ij]quinazolin-5(3H)-one] | 73.1 |
| C=CC(=O)N1C[C@H](C)N(c2nc(=O)n3c4c(c(-c5cccc6cnn(C)c56)c(Cl)cc24)SC[C@@H]3CN2CCN(CC(F)F)CC2)C[C@H]1C (atropisomer, axis not shown) [Example 569, (3S,10R)-7-((2S,5R)-4-acryloyl-2,5-dimethylpiperazin-1-yl)-9-chloro-3-((4-(2,2-difluoroethyl)piperazin-1-yl)methyl)-10-(1-methyl-1H-indazol-7-yl)-2,3-dihydro-5H-[1,4]thiazino[2,3,4-ij]quinazolin-5-one] | 93.4 |
| C=CC(=O)N1CCN(c2nc(=O)n3c4c(c(-c5cc(Cl)c(F)cc5F)c(Cl)cc24)SC[C@@H](OC)C3)CC1 [Example 543, (3S)-8-(4-acryloylpiperazin-1-yl)-10-chloro-11-(5-chloro-2,4-difluorophenyl)-3-methoxy-3,4-dihydro-2H,6H-[1,4]thiazepino[2,3,4-ij]quinazolin-6-one] | 97 |
| C=CC(=O)N1C[C@H](C)N(c2nc(=O)n3c4c(c(-c5cc(F)c(F)cc5F)c(C(F)(F)F)cc24)SC[C@@H]3CN2CCN(CC(F)F)CC2)C[C@H]1C [Example 443, (3S)-7-((2S,5R)-4-acryloyl-2,5-dimethylpiperazin-1-yl)-3-((4-(2,2-difluoroethyl)piperazin-1-yl)methyl)-9-(trifluoromethyl)-10-(2,4,5-trifluorophenyl)-2H-[1,4]thiazino[2,3,4-ij]quinazolin-5(3H)-one] | 48.2 |
| C=CC(=O)N1CCN(c2nc(=O)n3c4c(c(-c5ccc(F)cc5F)c(Cl)cc24)SC2(CC2)C3)[C@@H](C)C1 [Example 433, 7′-((S)-4-acryloyl-2-methylpiperazin-1-yl)-9′-chloro-10′-(2,4-difluorophenyl)-3′H,5′H-spiro[cyclopropane-1,2′-[1,4]thiazino[2,3,4-ij]quinazolin]-5′-one] | 25.3 |
| C=CC(=O)N1CCN(c2nc(=O)n3c4c(c(-c5ccc(F)cc5F)c(C(F)(F)F)cc24)SC[C@@H](OC)C3)[C@@H](C)C1 [Example 464, (3S)-8-((S)-4-acryloyl-2-methylpiperazin-1-yl)-11-(2,4-difluorophenyl)-3-methoxy-10-(trifluoromethyl)-3,4-dihydro-2H,6H-[1,4]thiazepino[2,3,4-ij]quinazolin-6-one] | 95 |
| C=CC(=O)N1CCN(c2nc(=O)n3c4c(c(-c5ccc(F)cc5F)c(Cl)cc24)SC[C@H]3COCOC)[C@@H](C)C1 [Example 479, (3R)-7-((S)-4-acryloyl-2-methylpiperazin-1-yl)-9-chloro-10-(2,4-difluorophenyl)-3-((methoxymethoxy)methyl)-2H-[1,4]thiazino[2,3,4-ij]quinazolin-5(3H)-one] | 42 |

same assay, conditions: 10 uM, 60 min; Table 2a

| SMILES | % CAF 10 uM @ 60 min [%] |
| --- | --- |
| C=CC(=O)N1CCN(c2nc(=O)n3c4c(c(-c5cc(C6CC6)ccc5F)c(Cl)cc24)SCC3)[C@@H](C)C1 [Example 62a, 7-((S)-4-acryloyl-2-methylpiperazin-1-yl)-9-chloro-10-(5-cyclopropyl-2-fluorophenyl)-2,3-dihydro-5H-[1,4]thiazino[2,3,4-ij]quinazolin-5-one] | 67 |

same assay, conditions: 10 uM, 1 h; Table 3

| SMILES | % CAF @ 10 uM, 1h [%] |
| --- | --- |
| C=CC(=O)N1CCN(c2nc(=O)n3c4c(c(-c5ccc(F)cc5)c(Cl)cc24)SCC3)[C@@H](C)C1 [Example 151, (S)-7-(4-acryloyl-2-methylpiperazin-1-yl)-9-chloro-10-(4-fluorophenyl)-2,3-dihydro-5H-[1,4]thiazino[2,3,4-ij]quinazolin-5-one] | 94.1 |
| C=CC(=O)N1CCN(c2nc(=O)n3c4c(c(-c5cccc6c5C(=O)NC6)c(Cl)cc24)SCC3)[C@@H](C)C1 [Example 96, 7-((S)-4-acryloyl-2-methylpiperazin-1-yl)-9-chloro-10-(3-oxoisoindolin-4-yl)-2,3-dihydro-5H-[1,4]thiazino[2,3,4-ij]quinazolin-5-one] | 54 |
| C=CC(=O)N1CCN(c2nc(=O)n3c4c(c(-c5ccc(F)cc5F)c(Cl)cc24)SCC3)[C@@H](C)C1 (atropisomer, axis not shown) [Example 180, (R)-7-((S)-4-acryloyl-2-methylpiperazin-1-yl)-9-chloro-10-(2,4-difluorophenyl)-2,3-dihydro-5H-[1,4]thiazino[2,3,4-ij]quinazolin-5-one] | 94.7 |
| C=CC(=O)N1CCN(c2nc(=O)n3c4c(c(-c5ccc(F)cc5F)c(Cl)cc24)SC[C@@H]3CCCN2C[C@@H]3C[C@H]2CO3)[C@@H](C)C1 [Example 94, (3S)-3-(3-((1S,4S)-2-oxa-5-azabicyclo[2.2.1]heptan-5-yl)propyl)-7-((S)-4-acryloyl-2-methylpiperazin-1-yl)-9-chloro-10-(2,4-difluorophenyl)-2,3-dihydro-5H-[1,4]thiazino[2,3,4-ij]quinazolin-5-one] | 94.7 |
| C=CC(=O)N1CC2CCC1CN2c1nc(=O)n2c3c(c(-c4ccc(F)cc4F)c(Cl)cc13)SCC2 (stereo not shown) [Example 181, 7-(5-acryloyl-2,5-diazabicyclo[2.2.2]octan-2-yl)-9-chloro-10-(2,4-difluorophenyl)-2,3-dihydro-5H-[1,4]thiazino[2,3,4-ij]quinazolin-5-one] | 28.7 |

same assay, conditions: 10 μM, 1 h; Table 4

| SMILES | % CAF @ 10 μM, 1 h [%] |
| --- | --- |
| C=CC(=O)N1CCN(c2nc(=O)n3c4c(c(-c5ccc(F)cc5F)c(Cl)cc24)SC[C@H]3CN2CCN(CC(F)F)CC2)[C@@H](C)C1 [Example 347, (3R)-7-((S)-4-acryloyl-2-methylpiperazin-1-yl)-9-chloro-3-((4-(2,2-difluoroethyl)piperazin-1-yl)methyl)-10-(2,4-difluorophenyl)-2H-[1,4]thiazino[2,3,4-ij]quinazolin-5(3H)-one] | 82.5 |
